Measurements reported in ChEMBL document CHEMBL1909046, “DrugMatrix in vitro pharmacology data”.

Experiments:
[1] = target: cGMP-specific 3',5'-cyclic phosphodiesterase (Homo sapiens, UniProt O76074); assay: DRUGMATRIX: Phosphodiesterase PDE5 enzyme inhibition (substrate: [3H]cGMP + cGMP); format: tissue-based, Platelet; conditions: platelet; Not Active = under 50% inhibition at 10 µM
[2] = target: T1, Alpha-2A adrenergic receptor (Homo sapiens, UniProt P08913); format: cell membranes, Sf9, Membrane; conditions: sf9; further: in other assays of this panel Not Active means under 50% inhibition at 10 µM
T1 sequence (P08913 whole entry): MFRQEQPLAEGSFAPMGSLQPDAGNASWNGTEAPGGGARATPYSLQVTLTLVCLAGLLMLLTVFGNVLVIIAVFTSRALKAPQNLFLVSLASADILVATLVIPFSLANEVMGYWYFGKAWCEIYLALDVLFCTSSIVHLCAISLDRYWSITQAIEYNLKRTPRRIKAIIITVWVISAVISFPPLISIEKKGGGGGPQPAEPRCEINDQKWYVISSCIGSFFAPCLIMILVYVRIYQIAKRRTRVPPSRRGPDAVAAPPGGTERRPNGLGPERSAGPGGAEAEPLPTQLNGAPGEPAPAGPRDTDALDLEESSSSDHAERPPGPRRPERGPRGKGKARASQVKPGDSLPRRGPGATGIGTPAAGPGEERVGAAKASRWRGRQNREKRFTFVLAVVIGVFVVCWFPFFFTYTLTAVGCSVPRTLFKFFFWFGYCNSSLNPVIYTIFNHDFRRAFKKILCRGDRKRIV

[3] = target: Voltage-gated inwardly rectifying potassium channel KCNH2 (Homo sapiens, UniProt Q12809); conditions: hek293; further: in other assays of this panel Not Active means under 50% inhibition at 10 µM
Cytochrome P450 2E1 = Cytochrome P450 2E1 (Homo sapiens, UniProt P05181); conditions: bti-tn-5b1-4; further: in other assays of this panel Not Active means under 50% inhibition at 10 µM
D(1A) dopamine receptor = D(1A) dopamine receptor (Homo sapiens, UniProt P21728); assay: DRUGMATRIX: Dopamine D1 radioligand binding (ligand: [3H] SCH-23390); format: cell membranes, CHO, Membrane; conditions: cho; Not Active = under 50% inhibition at 10 µM
Glycine receptor = Glycine receptor (Rattus norvegicus, UniProt P22771+P24524+P07727+P20781); format: cell membranes, Wistar, Spinal cord, Membrane; further: in other assays of this panel Not Active means under 50% inhibition at 10 µM
[4] = target: T2, Alpha-1B adrenergic receptor (Rattus norvegicus, UniProt P15823); assay: DRUGMATRIX: Alpha-1B adrenergic receptor radioligand binding (ligand: prazosin); format: cell membranes, Wistar, Liver, Membrane; conditions: Not Active = under 50% inhibition at 10 µM
T2 sequence (P15823 whole entry): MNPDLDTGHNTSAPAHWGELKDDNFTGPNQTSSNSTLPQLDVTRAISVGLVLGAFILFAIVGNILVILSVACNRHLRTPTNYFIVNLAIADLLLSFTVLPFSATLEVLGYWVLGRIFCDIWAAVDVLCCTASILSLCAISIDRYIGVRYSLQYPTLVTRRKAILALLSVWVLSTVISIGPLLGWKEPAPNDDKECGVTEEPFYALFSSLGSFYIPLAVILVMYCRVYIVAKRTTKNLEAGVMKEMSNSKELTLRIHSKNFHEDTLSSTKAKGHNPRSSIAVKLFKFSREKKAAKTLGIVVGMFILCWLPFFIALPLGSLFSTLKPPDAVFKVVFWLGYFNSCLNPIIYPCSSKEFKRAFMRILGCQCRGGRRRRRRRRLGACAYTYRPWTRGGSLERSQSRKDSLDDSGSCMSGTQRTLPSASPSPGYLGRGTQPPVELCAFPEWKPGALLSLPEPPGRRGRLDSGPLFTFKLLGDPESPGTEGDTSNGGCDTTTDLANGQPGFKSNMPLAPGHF

[5] = target: Protein kinase C alpha type (Homo sapiens, UniProt P17252); format: cell-based; conditions: sf9
Cytochrome P450 1A2 = target: T3, Cytochrome P450 1A2 (Homo sapiens, UniProt P05177); conditions: bti-tn-5b1-4; further: in other assays of this panel Not Active means under 50% inhibition at 10 µM
T3 sequence (P05177 whole entry): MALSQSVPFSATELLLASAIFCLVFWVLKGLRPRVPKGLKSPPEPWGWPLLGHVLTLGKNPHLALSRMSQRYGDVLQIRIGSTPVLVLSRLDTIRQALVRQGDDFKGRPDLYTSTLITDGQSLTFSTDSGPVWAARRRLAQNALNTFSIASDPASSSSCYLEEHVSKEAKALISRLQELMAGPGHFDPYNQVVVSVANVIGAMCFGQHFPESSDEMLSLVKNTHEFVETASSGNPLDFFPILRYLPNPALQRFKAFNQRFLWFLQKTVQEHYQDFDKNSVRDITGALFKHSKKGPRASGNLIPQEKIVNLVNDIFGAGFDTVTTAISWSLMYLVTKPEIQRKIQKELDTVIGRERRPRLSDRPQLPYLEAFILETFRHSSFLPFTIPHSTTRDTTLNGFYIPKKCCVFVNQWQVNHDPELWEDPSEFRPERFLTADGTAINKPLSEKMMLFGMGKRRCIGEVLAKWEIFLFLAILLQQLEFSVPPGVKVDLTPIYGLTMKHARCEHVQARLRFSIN

[6] = target: T4, 3-hydroxy-3-methylglutaryl-coenzyme A reductase (Homo sapiens, UniProt P04035); parameters: species or system Escherichia coli
T4 sequence (P04035 whole entry): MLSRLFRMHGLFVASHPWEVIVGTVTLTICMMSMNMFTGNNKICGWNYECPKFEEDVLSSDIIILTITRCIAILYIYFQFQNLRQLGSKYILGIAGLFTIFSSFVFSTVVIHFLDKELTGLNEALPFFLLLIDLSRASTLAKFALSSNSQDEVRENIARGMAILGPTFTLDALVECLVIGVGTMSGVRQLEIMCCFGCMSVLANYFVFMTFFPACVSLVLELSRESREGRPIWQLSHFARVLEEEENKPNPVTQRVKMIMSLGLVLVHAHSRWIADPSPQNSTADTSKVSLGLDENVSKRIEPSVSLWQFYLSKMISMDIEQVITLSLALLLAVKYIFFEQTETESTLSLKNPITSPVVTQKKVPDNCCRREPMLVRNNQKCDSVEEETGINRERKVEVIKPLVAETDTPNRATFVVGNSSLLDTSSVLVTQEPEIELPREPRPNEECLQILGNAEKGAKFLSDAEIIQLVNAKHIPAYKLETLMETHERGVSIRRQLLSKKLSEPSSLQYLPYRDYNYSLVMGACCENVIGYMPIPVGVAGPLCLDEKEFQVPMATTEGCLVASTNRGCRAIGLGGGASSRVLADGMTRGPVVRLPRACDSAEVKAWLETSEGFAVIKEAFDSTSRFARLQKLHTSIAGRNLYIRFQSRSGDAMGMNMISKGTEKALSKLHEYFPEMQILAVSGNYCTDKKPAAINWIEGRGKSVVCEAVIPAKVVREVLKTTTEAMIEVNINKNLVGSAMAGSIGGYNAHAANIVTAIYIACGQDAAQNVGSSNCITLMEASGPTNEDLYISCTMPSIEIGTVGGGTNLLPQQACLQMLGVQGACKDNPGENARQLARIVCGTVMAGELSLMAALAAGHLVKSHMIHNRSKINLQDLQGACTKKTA

Chain of Cytochrome P450 2E1 (P05181 whole entry): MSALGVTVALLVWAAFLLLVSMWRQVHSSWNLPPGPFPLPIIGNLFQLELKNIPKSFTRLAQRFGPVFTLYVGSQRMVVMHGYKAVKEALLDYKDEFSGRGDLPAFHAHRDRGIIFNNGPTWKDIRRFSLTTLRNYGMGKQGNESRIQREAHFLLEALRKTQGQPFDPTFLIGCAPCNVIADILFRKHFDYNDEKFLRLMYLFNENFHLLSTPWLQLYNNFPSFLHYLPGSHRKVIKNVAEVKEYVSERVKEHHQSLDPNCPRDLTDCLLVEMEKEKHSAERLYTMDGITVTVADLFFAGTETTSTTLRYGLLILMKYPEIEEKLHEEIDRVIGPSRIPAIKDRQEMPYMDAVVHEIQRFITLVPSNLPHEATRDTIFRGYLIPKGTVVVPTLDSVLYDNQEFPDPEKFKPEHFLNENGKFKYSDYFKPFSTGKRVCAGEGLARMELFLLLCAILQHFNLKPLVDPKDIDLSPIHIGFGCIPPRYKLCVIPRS
Chain of Voltage-gated inwardly rectifying potassium channel KCNH2 (Q12809 whole entry): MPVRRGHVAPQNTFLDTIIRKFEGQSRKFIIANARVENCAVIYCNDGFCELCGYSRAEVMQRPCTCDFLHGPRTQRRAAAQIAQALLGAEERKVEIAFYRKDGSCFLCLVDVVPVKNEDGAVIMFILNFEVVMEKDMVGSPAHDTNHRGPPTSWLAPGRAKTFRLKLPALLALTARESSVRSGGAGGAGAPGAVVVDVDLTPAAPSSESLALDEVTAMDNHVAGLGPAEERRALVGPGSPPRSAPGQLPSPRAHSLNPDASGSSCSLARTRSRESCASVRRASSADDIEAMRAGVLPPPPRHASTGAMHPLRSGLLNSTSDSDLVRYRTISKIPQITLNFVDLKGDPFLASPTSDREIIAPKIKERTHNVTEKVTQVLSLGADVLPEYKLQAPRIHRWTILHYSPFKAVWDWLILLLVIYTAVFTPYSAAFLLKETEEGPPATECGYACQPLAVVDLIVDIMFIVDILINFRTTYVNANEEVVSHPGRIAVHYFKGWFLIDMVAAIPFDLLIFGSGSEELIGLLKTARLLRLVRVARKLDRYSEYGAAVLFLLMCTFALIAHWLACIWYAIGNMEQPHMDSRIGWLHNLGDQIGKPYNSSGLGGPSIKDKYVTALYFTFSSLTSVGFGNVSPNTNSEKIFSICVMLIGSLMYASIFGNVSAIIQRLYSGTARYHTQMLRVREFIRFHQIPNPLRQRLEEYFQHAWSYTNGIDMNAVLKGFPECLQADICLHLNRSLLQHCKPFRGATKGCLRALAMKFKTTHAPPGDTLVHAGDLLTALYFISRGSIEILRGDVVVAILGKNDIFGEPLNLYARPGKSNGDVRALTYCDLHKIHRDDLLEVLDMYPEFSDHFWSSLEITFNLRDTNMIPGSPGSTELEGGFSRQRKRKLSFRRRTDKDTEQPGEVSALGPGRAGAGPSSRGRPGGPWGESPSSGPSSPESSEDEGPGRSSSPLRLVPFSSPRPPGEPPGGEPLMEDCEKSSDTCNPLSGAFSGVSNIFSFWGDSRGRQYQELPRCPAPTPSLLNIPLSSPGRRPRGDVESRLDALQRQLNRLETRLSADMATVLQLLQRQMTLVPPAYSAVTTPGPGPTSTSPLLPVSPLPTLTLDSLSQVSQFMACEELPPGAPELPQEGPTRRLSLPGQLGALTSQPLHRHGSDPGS
Chain of D(1A) dopamine receptor (P21728 whole entry): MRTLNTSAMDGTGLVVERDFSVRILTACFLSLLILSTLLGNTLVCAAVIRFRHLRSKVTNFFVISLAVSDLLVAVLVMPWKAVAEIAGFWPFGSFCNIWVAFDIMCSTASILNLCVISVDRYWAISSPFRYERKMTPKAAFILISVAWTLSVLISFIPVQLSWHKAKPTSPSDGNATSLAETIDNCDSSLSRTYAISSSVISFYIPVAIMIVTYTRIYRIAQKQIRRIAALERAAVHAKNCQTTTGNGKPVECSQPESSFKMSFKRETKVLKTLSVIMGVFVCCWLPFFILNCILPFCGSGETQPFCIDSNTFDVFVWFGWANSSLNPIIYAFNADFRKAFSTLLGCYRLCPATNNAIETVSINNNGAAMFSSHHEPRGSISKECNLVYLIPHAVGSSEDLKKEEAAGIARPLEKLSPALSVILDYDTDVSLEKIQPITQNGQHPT

NCC1(CC(=O)O)CCCCC1 [GABAPENTIN]
Not Active: IC50 [1] | IC50 [2] | IC50 [3] | Ki [3] | IC50 (Cytochrome P450 2E1) | Ki (Cytochrome P450 2E1) | IC50 (D(1A) dopamine receptor) | IC50 (Glycine receptor) | IC50 [4] | IC50 [5] | IC50 (Cytochrome P450 1A2) | Ki (Cytochrome P450 1A2) | IC50 [6]

CCc1ccc(C(=O)C(C)CN2CCCCC2)cc1 (configuration not stated) [EPERISONE]
Not Active: IC50 [1] | IC50 [2] | IC50 [3] | Ki [3] | IC50 (Cytochrome P450 2E1) | Ki (Cytochrome P450 2E1) | IC50 (D(1A) dopamine receptor) | IC50 (Glycine receptor) | IC50 [4] | IC50 [5] | IC50 (Cytochrome P450 1A2) | Ki (Cytochrome P450 1A2) | IC50 [6]

CN1CCC[C@H]1c1cccnc1 [NICOTINE]
Not Active: IC50 [1] | IC50 [2] | IC50 [3] | Ki [3] | IC50 (Cytochrome P450 2E1) | Ki (Cytochrome P450 2E1) | IC50 (D(1A) dopamine receptor) | IC50 (Glycine receptor) | IC50 [4] | IC50 [5] | IC50 (Cytochrome P450 1A2) | Ki (Cytochrome P450 1A2) | IC50 [6]

CC1(C)S[C@@H]2[C@H](NC(=O)[C@H](NC(=O)N3CCNC3=O)c3ccccc3)C(=O)N2[C@H]1C(=O)O [AZLOCILLIN]
Not Active: IC50 [1] | IC50 [2] | IC50 [3] | Ki [3] | IC50 (Cytochrome P450 2E1) | Ki (Cytochrome P450 2E1) | IC50 (D(1A) dopamine receptor) | IC50 (Glycine receptor) | IC50 [4] | IC50 [5] | IC50 (Cytochrome P450 1A2) | Ki (Cytochrome P450 1A2) | IC50 [6]

OXALIPLATIN
Not Active: IC50 [1] | Ki [1] | IC50 [2] | Ki [2] | IC50 [3] | Ki [3] | IC50 (Cytochrome P450 2E1) | Ki (Cytochrome P450 2E1) | IC50 (D(1A) dopamine receptor) | Ki (D(1A) dopamine receptor) | IC50 (Glycine receptor) | Ki (Glycine receptor) | IC50 [4] | Ki [4] | IC50 [5] | Ki [5] | IC50 (Cytochrome P450 1A2) | Ki (Cytochrome P450 1A2) | IC50 [6] | Ki [6]

CCc1cccc2c3c([nH]c12)C(CC)(CC(=O)O)OCC3 (configuration not stated) [ETODOLAC]
Not Active: IC50 [1] | IC50 [2] | IC50 [3] | Ki [3] | IC50 (Cytochrome P450 2E1) | Ki (Cytochrome P450 2E1) | IC50 (D(1A) dopamine receptor) | IC50 (Glycine receptor) | IC50 [4] | IC50 [5] | IC50 (Cytochrome P450 1A2) | Ki (Cytochrome P450 1A2) | IC50 [6]

C/C=C1\[C@H]2C=C(C)C[C@]1(N)c1ccc(=O)[nH]c1C2 [HUPERZINE A]
Not Active: IC50 [1] | IC50 [2] | IC50 [3] | Ki [3] | IC50 (Cytochrome P450 2E1) | Ki (Cytochrome P450 2E1) | IC50 (D(1A) dopamine receptor) | IC50 (Glycine receptor) | IC50 [4] | IC50 [5] | IC50 (Cytochrome P450 1A2) | Ki (Cytochrome P450 1A2) | IC50 [6]

O=c1[nH]cc(F)c(=O)[nH]1 [FLUOROURACIL]
Not Active: IC50 [1] | IC50 [2] | IC50 [3] | Ki [3] | IC50 (Cytochrome P450 2E1) | Ki (Cytochrome P450 2E1) | IC50 (D(1A) dopamine receptor) | IC50 (Glycine receptor) | IC50 [4] | IC50 [5] | IC50 (Cytochrome P450 1A2) | Ki (Cytochrome P450 1A2) | IC50 [6]

O=C1OC2(c3ccc(O)cc3Oc3cc(O)ccc32)c2ccccc21 [FLUORESCEIN]
Not Active: IC50 [1] | IC50 [2] | IC50 [3] | Ki [3] | IC50 (Cytochrome P450 2E1) | Ki (Cytochrome P450 2E1) | IC50 (D(1A) dopamine receptor) | IC50 (Glycine receptor) | IC50 [4] | IC50 [5] | IC50 (Cytochrome P450 1A2) | Ki (Cytochrome P450 1A2) | IC50 [6]

COC1=CC(=O)C[C@@H](C)[C@]12Oc1c(Cl)c(OC)cc(OC)c1C2=O [GRISEOFULVIN]
Not Active: IC50 [1] | IC50 [2] | IC50 [3] | Ki [3] | IC50 (Cytochrome P450 2E1) | Ki (Cytochrome P450 2E1) | IC50 (D(1A) dopamine receptor) | IC50 (Glycine receptor) | IC50 [4] | IC50 [5] | IC50 (Cytochrome P450 1A2) | Ki (Cytochrome P450 1A2) | IC50 [6]
